The record followed here is patent US4900730A, “Preparation which promotes the absorption of peptides” (priority 1981, dated 1990).

The series is described as follows: Rectal circulation: Cephalothin disappeared by absorption (Examples 10-14, 16-18). The protocol:
The experiments were conducted similarly as in Example 1. […] Each sample was diluted and the quantity of Cephalothin disappeared was determined by UV-spectrophotometer of high-speed liquid chromatography.

Where [1] appears, read: Table 11, promoter 0.5% W/V, Example 10 repeated, four-fold tonic.
The mark [2] stands for this setting: Table 11, promoter 0.5% W/V, Example 10 repeated, isotonic.
The mark [3] stands for this setting: Table 4, promoter 0.1% W/V, 0.1% W/V Cephalothin.Na, isotonic, after one hour.
Setting [4] is: Table 4, promoter 0.1% W/V, 0.1% W/V Cephalothin.Na, four-fold tonic, after one hour.
[5] abbreviates: Table 4, promoter 0.1% W/V, 0.1% W/V Cephalothin.Na, two-fold tonic, after one hour.
[6] abbreviates: Table 5, promoter 0.1% W/V, 0.1% W/V Cephalothin.Na, four-fold tonic, one hour.

Consider `NC(CS(=O)(=O)O)C(=O)O` (racemic) [DL-cysteic acid], for which, under “rat, in vivo”, the “Cephalothin disappeared by absorption, Osmotic pressure X 1” value was 5.3 percents; the “Cephalothin disappeared by absorption, Osmotic pressure X 2” value was 9.0 percents; the “Cephalothin disappeared by absorption, Osmotic pressure X 4” value came to 14.6 percents.

Regarding `O=C(O)[C@@H]1C[C@@H](O)CN1` (racemic) [DL-hydroxyproline], the “Cephalothin disappeared by absorption, Osmotic pressure X 4” value under setting [1] is given as 12.9 percents. For the same molecule, the “Cephalothin disappeared by absorption, Osmotic pressure X 1” value under setting [2] is given as 5.5 percents.

For the molecule `NC(Cc1ccccc1)C(=O)O` (racemic) [DL-phenylalanine], where the note is “rat, in vivo”, the “Cephalothin disappeared by absorption, Osmotic pressure X 1” value was 6.6 percents and the “Cephalothin disappeared by absorption, Osmotic pressure X 4” value stood at 15.6 percents.

As for `NC(C(=O)O)c1ccccc1` (racemic) [DL-phenylglycine], the “Cephalothin disappeared by absorption, Osmotic pressure X 4” value (rat, in vivo) is on record as 29.3 percents.

With `CCC(NC(=O)CN)C(=O)O` (racemic) [Glycyl-DL-aminobutyric acid, glycyl-DL-aminobutyric acid], for the setting “rat, in vivo”, the “Cephalothin disappeared by absorption, Osmotic pressure X 1” value is 11.0 percents and the “Cephalothin disappeared by absorption, Osmotic pressure X 4” value is on record as 30.4 percents.

As for `NCC(=O)NC(CC(=O)O)C(=O)O` (racemic) [Glycyl-DL-aspartic acid, glycyl-DL-aspartic acid], for the setting “rat, in vivo”, the “Cephalothin disappeared by absorption, Osmotic pressure X 1” value was found to be 8.6 percents and the “Cephalothin disappeared by absorption, Osmotic pressure X 4” value came to 19.0 percents.

As for `COC(=O)C(N)CCC(=O)O` (racemic) [α-methyl DL-glutamate], the “Cephalothin disappeared by absorption, Osmotic pressure X 4” value (Table 11, promoter 0.1% W/V, Example 10 repeated, four-fold tonic) stood at 21.4 percents. Also, the “Cephalothin disappeared by absorption, Osmotic pressure X 1” value (Table 11, promoter 0.1% W/V, Example 10 repeated, isotonic) is given as 11.9 percents.

As to `O=C(O)c1c(O)cccc1O` [2,6-dihydroxybenzoic acid], where the note is “rat, in vivo”, the “Cephalothin.Na disappeared by absorption, Osmotic pressure X 1” value was 9.5 percents; the “Cephalothin.Na disappeared by absorption, Osmotic pressure X 2” value is on record as 15.3 percents; the “Cephalothin.Na disappeared by absorption, Osmotic pressure X 4” value was determined as 22.9 percents.

As to `CC(=O)CC(=O)Cc1ccccc1` [3-Phenylacetyl acetone, 3-phenylacetyl acetone], the “Cephalothin disappeared by absorption, Osmotic pressure X 4” value (Table 10, diketo-compounds, Example 10 repeated, four-fold tonic) amounted to 22.2 percents. Also, the “Cephalothin disappeared by absorption, Osmotic pressure X 1” value (Table 10, diketo-compounds, Example 10 repeated, isotonic) was determined as 9.1 percents. For the same molecule, the “Cephalothin disappeared by absorption, Osmotic pressure X 2” value (Table 10, diketo-compounds, Example 10 repeated, two-fold tonic) came to 16.3 percents.

For `O=C(O)CN(CC(=O)O)C1CCCCC1N(CC(=O)O)CC(=O)O` (stereo not drawn) [CyDTA, trans-cyclohexanediaminetetraacetic acid], under “rat, in vivo”, the “Cephalothin disappeared by absorption, Osmotic pressure (%) X 1” value (shortened to “Cephalothin disappeared … (%) X 1”) came out at 8.1%; the “Cephalothin disappeared by absorption, Osmotic pressure (%) X 2” value (shortened to “Cephalothin disappeared … (%) X 2”) was determined as 15.0%; the “Cephalothin disappeared by absorption, Osmotic pressure (%) X 4” value (“Cephalothin disappeared … (%) X 4” below) came to 32.3%.

Regarding `O=S(=O)(O)c1cc(O)c(O)c(S(=O)(=O)O)c1` [DHBDS, 1,2-dihydroxybenzene-3,5-disulfonic acid], for the setting “rat, in vivo”, the “Cephalothin disappeared by absorption, Osmotic pressure X 1” value worked out at 9.8 percents and the “Cephalothin disappeared by absorption, Osmotic pressure X 4” value stood at 22.0 percents.

For `NCC(=O)O` [DL-glycine], the “Cephalothin disappeared by absorption, Osmotic pressure X 4” value under setting [1] is listed as 14.0 percents. Moreover, the “Cephalothin disappeared by absorption, Osmotic pressure X 1” value under setting [2] was 6.9 percents. Besides, the “Cephalothin disappeared by absorption, Osmotic pressure X 2” value (Table 11, promoter 0.5% W/V, Example 10 repeated, two-fold tonic) is 9.4 percents.

With `O=C(O)CN(CC(=O)O)CC(O)CN(CC(=O)O)CC(=O)O` [DTPA-OH, diaminopropanoltetraacetic acid], for the setting “rat, in vivo”, the “Cephalothin disappeared … (%) X 1” value was 7.5%; the “Cephalothin disappeared … (%) X 2” value was 13.7%; the “Cephalothin disappeared … (%) X 4” value was found to be 21.6%.

As to `O=C(O)CN(CCN(CC(=O)O)CC(=O)O)CC(=O)O` [EDTA.2Na, ethylenediaminetetraacetic acid], under setting [3], the “Cephalothin disappeared … (%) X 1” value came out at 9.4%.

Regarding `O=P(O)(O)CN(CCN(CP(=O)(O)O)CP(=O)(O)O)CP(=O)(O)O` [EDTPO, ethylenediaminetetrakis(methylenephosphonicacid)], for the setting “rat, in vivo”, the “Cephalothin disappeared by absorption, Osmotic pressure X 1” value is given as 7.6 percents and the “Cephalothin disappeared by absorption, Osmotic pressure X 4” value was determined as 20.0 percents.

Regarding `CCC(C(=O)O)C(=O)O` [Ethylmalonic acid, ethylmalonic acid], under “rat, in vivo”, the “Cephalothin disappeared … (%) X 1” value came out at 12.3%; the “Cephalothin disappeared … (%) X 2” value was determined as 24.2%; the “Cephalothin disappeared … (%) X 4” value is on record as 36.9%.

Turning to `O=P(O)(O)OC[C@H]1O[C@](O)(COP(=O)(O)O)[C@@H](O)[C@@H]1O` [Fructose-1,6-diphosphoric acid], where the note is “rat, in vivo”, the “Cephalothin disappeared by absorption, Osmotic pressure X 1” value is 4.1 percents; the “Cephalothin disappeared by absorption, Osmotic pressure X 2” value was found to be 7.5 percents; the “Cephalothin disappeared by absorption, Osmotic pressure X 4” value was determined as 13.3 percents.

As for `O=C[C@H](O)[C@@H](O)[C@@H](O)[C@H](O)C(=O)O` [Galactronic acid, galacturonic acid], for the setting “rat, in vivo”, the “Cephalothin disappeared by absorption, Osmotic pressure X 1” value was 5.8 percents; the “Cephalothin disappeared by absorption, Osmotic pressure X 2” value was 10.5 percents; the “Cephalothin disappeared by absorption, Osmotic pressure X 4” value was determined as 16.1 percents.

In the case of `O=C[C@H](O)[C@@H](O)[C@H](O)[C@H](O)C(=O)O` [Glucronic acid, glucuronic acid], where the note is “rat, in vivo”, the “Cephalothin disappeared by absorption, Osmotic pressure X 1” value is listed as 5.5 percents; the “Cephalothin disappeared by absorption, Osmotic pressure X 2” value is on record as 11.1 percents; the “Cephalothin disappeared by absorption, Osmotic pressure X 4” value turned out to be 16.4 percents.

In the case of `O=C(O)CCCC(=O)O` [Glutaric acid, glutaric acid], under setting [4], the “Cephalothin disappeared … (%) X 4” value was 15.2%. Moreover, under setting [3], the “Cephalothin disappeared … (%) X 1” value turned out to be 5.7%. Besides, the “Cephalothin disappeared … (%) X 2” value under setting [5] came to 9.3%.

Turning to `O=C(O)CNCC(=O)O` [Iminodiacetic acid, iminodiacetic acid], where the note is “rat, in vivo”, the “Cephalothin disappeared … (%) X 1” value worked out at 7.1%; the “Cephalothin disappeared … (%) X 2” value came to 14.2%; the “Cephalothin disappeared … (%) X 4” value is 17.0%.

For the molecule `CC(=O)CCC(=O)O` [Levulinic acid, levulinic acid], under “rat, in vivo”, the “Cephalothin disappeared … (%) X 1” value came to 11.9%; the “Cephalothin disappeared … (%) X 2” value worked out at 21.1%; the “Cephalothin disappeared … (%) X 4” value stood at 34.3%.

Regarding `O=C(O)CC(O)C(=O)O` (stereo not shown) [Malic acid, malic acid], for the setting “Table 6, promoter 0.1 W/V %, 0.1 W/V % Cephalothin.Na, four-fold tonic, one hour”, the “Cephalothin disappeared by absorption, Osmotic pressure X 4” value worked out at 18.8 percents. The “Cephalothin disappeared by absorption, Osmotic pressure X 1” value (Table 6, promoter 0.1 W/V %, 0.1 W/V % Cephalothin.Na, isotonic, one hour) is given as 7.2 percents. For the same molecule, where the note is “Table 6, promoter 0.1 W/V %, 0.1 W/V % Cephalothin.Na, two-fold tonic, one hour”, the “Cephalothin disappeared by absorption, Osmotic pressure X 2” value was determined as 12.3 percents.

With `CN(C)[C@@H](Cc1ccccc1)C(=O)O` [N--dimethylphenylalanine, N-dimethylphenylalanine], under “rat, in vivo”, the “Cephalothin disappeared by absorption, Osmotic pressure X 1” value is on record as 10.9 percents and the “Cephalothin disappeared by absorption, Osmotic pressure X 4” value turned out to be 25.5 percents.

Take `O=C(O)CNc1ccccc1` [N--phenylglycine, N-phenylglycine]: where the note is “rat, in vivo”, the “Cephalothin disappeared by absorption, Osmotic pressure X 1” value was determined as 12.0 percents; the “Cephalothin disappeared by absorption, Osmotic pressure X 2” value amounted to 22.3 percents; the “Cephalothin disappeared by absorption, Osmotic pressure X 4” value is on record as 30.8 percents.

Turning to `O=C(O)CCCCCC(=O)O` [Pimellic acid, pimellic acid], where the note is “rat, in vivo”, the “Cephalothin disappeared … (%) X 1” value came out at 5.1%; the “Cephalothin disappeared … (%) X 2” value turned out to be 7.8%; the “Cephalothin disappeared … (%) X 4” value was 15.0%.

`O=CC(=O)[O-].[Na+]` [Sodium glyoxalate, sodium glyoxalate]: the “Cephalothin disappeared … (%) X 4” value under setting [6] came out at 13.1%. The “Cephalothin disappeared … (%) X 1” value (Table 5, promoter 0.1% W/V, 0.1% W/V Cephalothin.Na, isotonic, one hour) is reported as 4.9%.

As for `O=C([O-])C(=O)C(=O)[O-].[Na+].[Na+]` [Sodium ketomalonate, sodium ketomalonate], for the setting “rat, in vivo”, the “Cephalothin disappeared … (%) X 1” value is reported as 8.4%; the “Cephalothin disappeared … (%) X 2” value amounted to 12.7%; the “Cephalothin disappeared … (%) X 4” value was 19.6%.

As for `O=C([O-])C(=O)[O-].[Na+].[Na+]` [Sodium oxalate, sodium oxalate], the “Cephalothin disappeared … (%) X 4” value under setting [4] is on record as 18.3%. In addition, the “Cephalothin disappeared … (%) X 1” value under setting [3] was found to be 6.6%.

Consider `O=C([O-])c1ccccc1C(=O)[O-].[Na+].[Na+]` [Sodium phthalate, sodium phthalate], for which, for the setting “rat, in vivo”, the “Cephalothin.Na disappeared by absorption, Osmotic pressure X 1” value is recorded as 7.1 percents and the “Cephalothin.Na disappeared by absorption, Osmotic pressure X 4” value amounted to 18.9 percents.

Take `CC(=O)C(=O)[O-].[Na+]` [Sodium pyruvate, sodium pyruvate]: for the setting “rat, in vivo”, the “Cephalothin disappeared … (%) X 1” value was 7.0%; the “Cephalothin disappeared … (%) X 2” value is listed as 11.6%; the “Cephalothin disappeared … (%) X 4” value is given as 23.1%.

As for `O=C(O)CCC(=O)O` [Succinic acid], for the setting “rat, in vivo”, the “Cephalothin disappeared … (%) X 1” value was determined as 8.2%; the “Cephalothin disappeared … (%) X 2” value came out at 13.1%; the “Cephalothin disappeared … (%) X 4” value was 24.0%.

In the case of `O=C(O)/C=C(\CC(=O)O)C(=O)O` [Trans-aconitic acid, trans-aconitic acid], under setting [4], the “Cephalothin disappeared … (%) X 4” value was 27.8%. Also, under setting [3], the “Cephalothin disappeared … (%) X 1” value was found to be 10.5%. In addition, the “Cephalothin disappeared … (%) X 2” value under setting [5] stood at 18.6%.

Consider `CCC(=O)C(=O)O` [α-ketobutyric acid], for which, where the note is “rat, in vivo”, the “Cephalothin disappeared … (%) X 1” value came out at 11.2%; the “Cephalothin disappeared … (%) X 2” value came out at 18.3%; the “Cephalothin disappeared … (%) X 4” value was 30.9%.

As to `O=C(O)CCC(=O)C(=O)O` [α-ketoglutaric acid], the “Cephalothin disappeared … (%) X 4” value under setting [6] is listed as 25.6%.
